Columns and labels:
Adenosine receptor A2a [1] = molecular target: Adenosine receptor A2a (Homo sapiens, UniProt P29274); assay: Displacement of [3H]SCH58261 from human recombinant A2A receptor expressed in HEK293 cells; format: cell-based
[2] = Metabolic stability in human liver microsomes assessed as compound remaining after 30 mins; format: ADME, Microsome; conditions: read-out: Stability
[3] = Metabolic stability in rat liver microsomes assessed as compound remaining after 30 mins; format: ADME, Microsome; conditions: read-out: Stability
Adenosine receptor A2a [4] = molecular target: Adenosine receptor A2a (Rattus norvegicus, UniProt P30543); assay: Antagonist activity at rat A2A receptor by cAMP functional assay
Adenosine receptor A2a (Rattus norvegicus, UniProt P30543), sequence (P30543 whole entry): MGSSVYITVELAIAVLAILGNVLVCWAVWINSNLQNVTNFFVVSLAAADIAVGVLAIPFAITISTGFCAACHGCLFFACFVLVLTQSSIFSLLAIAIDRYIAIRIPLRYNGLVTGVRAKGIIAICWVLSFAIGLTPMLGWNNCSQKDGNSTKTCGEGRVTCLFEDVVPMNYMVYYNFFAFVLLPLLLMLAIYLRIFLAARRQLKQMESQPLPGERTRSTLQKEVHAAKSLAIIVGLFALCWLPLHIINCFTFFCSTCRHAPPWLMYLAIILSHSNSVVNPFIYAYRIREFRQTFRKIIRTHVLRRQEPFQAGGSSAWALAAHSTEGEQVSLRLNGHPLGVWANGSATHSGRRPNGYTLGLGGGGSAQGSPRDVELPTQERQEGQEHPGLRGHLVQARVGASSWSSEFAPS

[5] = Selectivity for human adenosine A2A receptor over adenosine A1 receptor
[6] = Ratio of drug level in brain to plasma of rat at 30 mg/kg, po after 1 hr; format: ADME, organism-based; design: dose 30 mg/kg, route oral; conditions: read-out: BPR
[7] = Drug level in rat brain at 30 mg/kg, po after 1 hr; format: ADME, organism-based; design: dose 30 mg/kg, route oral; conditions: read-out: Drug uptake
[8] = Plasma concentration in rat at 30 mg/kg, po after 4 hrs; format: ADME, organism-based; design: dose 30 mg/kg, route oral
[9] = Plasma concentration in rat at 30 mg/kg, po after 1 hr; format: ADME, organism-based; design: dose 30 mg/kg, route oral
[10] = Ratio of drug level in brain to plasma of rat at 30 mg/kg, po after 4 hrs; format: ADME, organism-based; design: dose 30 mg/kg, route oral; conditions: read-out: BPR
[11] = Drug level in rat brain at 30 mg/kg, po after 4 hrs; format: ADME, organism-based; design: dose 30 mg/kg, route oral; conditions: read-out: Drug uptake

Adenosine receptor A2a (Homo sapiens, UniProt P29274), sequence (P29274 whole entry): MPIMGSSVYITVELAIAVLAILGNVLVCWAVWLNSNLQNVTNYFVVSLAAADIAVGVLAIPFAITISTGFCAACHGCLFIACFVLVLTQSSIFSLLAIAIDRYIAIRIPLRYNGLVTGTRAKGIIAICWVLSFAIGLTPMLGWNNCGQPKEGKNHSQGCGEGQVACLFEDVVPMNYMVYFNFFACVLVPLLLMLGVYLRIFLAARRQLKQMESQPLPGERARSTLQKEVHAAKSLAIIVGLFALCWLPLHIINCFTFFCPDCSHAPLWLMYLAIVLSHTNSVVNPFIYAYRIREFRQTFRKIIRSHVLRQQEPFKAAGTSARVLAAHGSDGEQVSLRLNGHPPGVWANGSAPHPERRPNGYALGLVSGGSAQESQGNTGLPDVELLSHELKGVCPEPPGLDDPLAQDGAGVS

| Compound | Ki (Adenosine receptor A2a [1]) [nM] | Ratio [5] | further results |
| --- | --- | --- | --- |
| COCCCn1c(N)nc2cc(C(=O)NCc3cccc(OC)c3)ccc21 | 6770 | – | – |
| COCCCn1c(NC(=O)c2ccccc2Cl)nc2cc(C(=O)NCc3cccc(OC)c3)ccc21 | 4710 | – | – |
| COCCCn1c(NC(=O)c2cccc(C#N)c2)nc2cc(C(=O)N3CCCCC3)cnc21 | 9.6 | – | remaining at 0.5 h [2]: 90%; remaining at 0.5 h [3]: 36% |
| COCCCn1c(NC(=O)c2cccc(Cl)c2)nc2cc(C(=O)NCc3cccc(OC)c3)ccc21 | 439 | – | – |
| COCCCn1c(NC(=O)c2cccc(C#N)c2)nc2cc(C(=O)N(C)C(C)C)cnc21 | 13 | – | Ki (Adenosine receptor A2a [4]): 12 nM |
| N#Cc1cccc(C(=O)Nc2nc3cc(C(=O)N4CCCCC4)cnc3n2Cc2ccc(F)cc2)c1 | 2590 | 3 | – |
| COCCCn1c(NC(=O)c2cccc(C#N)c2)nc2cc(C(=O)N(C)C)cnc21 | 123 | – | – |
| COCCCn1c(NC(=O)c2cccc(C#N)c2)nc2ccc(C(=O)N3CCCCC3)cc21 | 17 | 131 | remaining at 0.5 h [2]: 19%; Ki (Adenosine receptor A2a [4]): 85 nM; remaining at 0.5 h [3]: 12% |
| CCOCCCn1c(NC(=O)c2cccc(C#N)c2)nc2cc(C(=O)N3CCOCC3)cnc21 | 1100 | 9 | – |
| CC(C)OCCCn1c(NC(=O)c2cccc(C#N)c2)nc2cc(C(=O)N3CCOCC3)cnc21 | > 10000 | – | – |
| CCN(C)C(=O)c1ccc2nc(NC(=O)c3cccc(C#N)c3)n(CCCOC)c2n1 | 12 | 80 | Kp at 1 h [6]: 0.23; remaining at 0.5 h [2]: 52%; concentration at 1 h [7]: 1050 ng/g; Ki (Adenosine receptor A2a [4]): 23 nM; remaining at 0.5 h [3]: 52%; concentration at 4 h [8]: 2380 ng/mL; concentration at 1 h [9]: 4630 ng/mL; Kp at 4 h [10]: 0.19; concentration at 4 h [11]: 450 ng/g |
| CCCCNC(=O)c1cnc2c(c1)nc(NC(=O)c1cccc(C#N)c1)n2CCCOC | 40 | – | remaining at 0.5 h [2]: 95%; remaining at 0.5 h [3]: 73% |
| COCCCn1c(NC(=O)c2cccc(C#N)c2)nc2cc(C(N)=O)cnc21 | 2430 | – | – |
| CCOCCn1c(NC(=O)c2cccc(C#N)c2)nc2cc(C(=O)N3CCOCC3)cnc21 | 3300 | 1.8 | – |
| N#Cc1cccc(C(=O)Nc2nc3cc(C(=O)N4CCCCC4)cnc3n2Cc2ccncc2)c1 | 39 | 39 | – |
| COCCCn1c(NC(=O)c2cccc(C(F)(F)F)c2)nc2cc(C(=O)NCc3cccc(OC)c3)ccc21 | > 10000 | – | – |
| Cn1c(NC(=O)c2cccc(C#N)c2)nc2cc(C(=O)N3CCCCC3)cnc21 | 147 | 22 | – |
| N#Cc1cccc(C(=O)Nc2nc3cc(C(=O)N4CCCCC4)cnc3n2CCCO)c1 | 51 | 10 | – |

| Compound | Ki (Adenosine receptor A2a [1]) [nM] | Ratio [5] | further results |
| --- | --- | --- | --- |
| CCN(C)C(=O)c1cnc2c(c1)nc(NC(=O)c1cccc(C#N)c1)n2CCCOC | 25 | – | Kp at 1 h [6]: 0.11; concentration at 1 h [7]: 480 ng/g; Ki (Adenosine receptor A2a [4]): 24 nM; concentration at 4 h [8]: 2290 ng/mL; concentration at 1 h [9]: 4360 ng/mL; Kp at 4 h [10]: 0.09; concentration at 4 h [11]: 210 ng/g |
| COCCCn1c(NC(=O)c2cccc(F)c2)nc2cc(C(=O)NCc3cccc(OC)c3)ccc21 | 210 | – | – |
| COCCCn1c(NC(=O)c2cccc(C#N)c2)nc2cc(C(=O)NCc3cccc(OC)c3)ccc21 | 46 | – | – |
| CCN(CC)C(=O)c1cnc2c(c1)nc(NC(=O)c1cccc(C#N)c1)n2CCCOC | 16 | – | Ki (Adenosine receptor A2a [4]): 59 nM |
| N#Cc1cccc(C(=O)Nc2nc3cc(C(=O)N4CCCCC4)cnc3n2Cc2cccnc2)c1 | 233 | 4 | – |
| COc1ccc(Cn2c(NC(=O)c3cccc(C#N)c3)nc3cc(C(=O)N4CCCCC4)cnc32)cc1 | 1220 | 7 | – |
| CC(=O)NCCn1c(NC(=O)c2cccc(C#N)c2)nc2cc(C(=O)N3CCCCC3)cnc21 | 37 | > 46 | – |
| COc1cccc(-n2c(NC(=O)c3cccc(C#N)c3)nc3cc(C(=O)N4CCCCC4)cnc32)c1 | 325 | 2 | – |
| CCN(CC)C(=O)c1ccc2nc(NC(=O)c3cccc(C#N)c3)n(CCCOC)c2c1 | 3.1 | 183 | remaining at 0.5 h [2]: 36%; Ki (Adenosine receptor A2a [4]): 16 nM; remaining at 0.5 h [3]: 19% |
| COCCCn1c(NC(=O)c2cccc(C#N)c2)nc2ccc(C(=O)N(C)C(C)C)nc21 | 2.5 | 88 | remaining at 0.5 h [2]: 25%; Ki (Adenosine receptor A2a [4]): 4.3 nM; remaining at 0.5 h [3]: 14% |
| COCCCn1c(NC(=O)c2cccc(C#N)c2)nc2cc(C(=O)N3CCCCC3)ccc21 | 48 | – | remaining at 0.5 h [2]: 67%; remaining at 0.5 h [3]: 16% |
| CCCCNC(=O)c1ccc2c(c1)nc(NC(=O)c1cccc(C#N)c1)n2CCCOC | 48 | – | remaining at 0.5 h [2]: 27%; remaining at 0.5 h [3]: 38% |
| COCCCn1c(NC(=O)c2cccc(C#N)c2)nc2cc(C(=O)N3CCOCC3)cnc21 | 92 | 61 | – |
| N#Cc1cccc(C(=O)Nc2nc3cc(C(=O)N4CCCCC4)cnc3n2C2CCOCC2)c1 | 179 | 10 | – |
| CCCCCn1c(NC(=O)c2cccc(C#N)c2)nc2cc(C(=O)N3CCCCC3)cnc21 | 904 | 3 | – |
| COCCCn1c(NC(=O)c2ccc(C#N)cc2)nc2cc(C(=O)NCc3cccc(OC)c3)ccc21 | 1670 | – | – |
| COCCCn1c(NC(=O)c2cccc(OC)c2)nc2cc(C(=O)NCc3cccc(OC)c3)ccc21 | 2380 | – | – |

Reference: ChEMBL document CHEMBL1268900, “Discovery of 2-aminoimidazopyridine adenosine A(2A) receptor antagonists” (Bioorg Med Chem Lett, 2010)
